Laboratory results as given in patent US20110190235A1, “BORON-CONTAINING SMALL MOLECULES AS ANTIPROTOZOAL AGENTS” (Anacor Pharmaceuticals, Inc., priority 2009, published 2011).
pIC50: −log10 of the molar value. Where two headings read alike, the source gives them in different places.

How the values were obtained:
[1] = system: bloodstream-form trypanosome T. brucei brucei 427 strain; test: Trypanosoma brucei brucei high-throughput in vitro drug sensitivity assay (resazurin); assay type: cell-based; conditions: for IC50 / pIC50: Trypanosoma brucei, 72 hrs incubation; for IC50: read-out: T.b. brucei IC50; for Selectivity Index (L929 IC50 / T. b. brucei IC50): T. b. brucei vs L929; for pIC50: read-out: T. b. brucei IC50
[2] = L929 cytotoxicity evaluation (resazurin); assay type: cell-based; conditions: mouse, L929 mouse fibroblast cells; 72 hrs incubation; read-out: Cytotox L-929 IC50
Procedure: For evaluation of compound effects on mammalian cells, L929 mouse fibroblast cells were used. Cells were maintained as adherent cultures in T-25 vented cap flasks in a humidified incubator at 37° C. in the presence of 5% CO2. Culture media was D-MEM supplemented with 10% fetal bovine serum and 1% penicillin/streptomycin. L929 cells were maintained below confluent levels by sub-culturing at 1:10 dilution twice weekly using 0.05% trypsin for detachment.
Sub-confluent L929 cells were trypsinized, resuspended in fresh media and 10 uL was counted using hemocytometer to determine cell concentration. Cells were diluted to 1×10^4/mL in DMEM, dispensed (100 uL) into 96-well plates using a Multidrop 384 dispenser and allowed to attach overnight. Spent media was replaced with 99.5 uL fresh D-MEM and compounds to be tested were serially diluted in DMSO and 0.5 uL added using a Biomek NX liquid handler. Plates were incubated with compounds for 72 hrs at 37° C. with 5% CO2. Resazurin (20 uL of 12.5 mg/ml stock) from Sigma-Aldrich was added to each well and plates were incubated for an additional 3-4 hrs. Assay plates were read using an EnVision plate reader at an excitation wavelength of 544 nm and emission of 590 nm. Single data points were used to generate sigmoidal dose response curves and determine IC50 values using XLfit curve fitting software from IDBS (Guildford, UK).

| IC50 [1] [µg/mL] | SMILES | IC50 at 72 h [2] [µg/mL] | Selectivity Index (L929 IC50 / T. b. brucei IC50) [1] | pIC50 [1] |
| --- | --- | --- | --- | --- |
| 2.35 | COc1cccc(C(=O)Nc2ccc3c(c2)B(O)OC3(C)C)c1 [compound 47, N-(1-Hydroxy-3,3-dimethyl-1,3-dihydro-benzo[c][1,2]oxaborol-6-yl)-3-methoxy-benzamide] | > 10 |  |  |
| > 5 | CCOc1ccccc1C(=O)Nc1ccc2c(c1)B(O)OC2(C)C [compound 49, 2-Ethoxy-N-(1-hydroxy-3,3-dimethyl-1,3-dihydro-benzo[c][1,2]oxaborol-6-yl)-benzamide] | > 10 |  |  |
| 1.4 | CCCCCOc1ccc(C(=O)Nc2ccc3c(c2)B(O)OC3(C)C)cc1 [compound 50, N-(1-Hydroxy-3,3-dimethyl-1,3-dihydro-benzo[c][1,2]oxaborol-6-yl)-4-pentyloxy-benzamide] | > 10 |  |  |
| 1.15 | CC1(C)OB(O)c2cc(NC(=O)c3ccccc3OC(F)(F)F)ccc21 [compound 51, N-(1-Hydroxy-3,3-dimethyl-1,3-dihydro-benzo[c][1,2]oxaborol-6-yl)-2-trifluoromethoxy-benzamide] | > 10 |  |  |
| 2.27 | CC1(C)OB(O)c2cc(NC(=O)c3cccc(OC(F)(F)F)c3)ccc21 [compound 52, N-(1-Hydroxy-3,3-dimethyl-1,3-dihydro-benzo[c][1,2]oxaborol-6-yl)-3-trifluoromethoxy-benzamide] | > 10 |  |  |
| 0.407 | CC1(C)OB(O)c2cc(NC(=O)c3ccc(OC(F)(F)F)cc3)ccc21 [compound 53, N-(1-Hydroxy-3,3-dimethyl-1,3-dihydro-benzo[c][1,2]oxaborol-6-yl)-4-trifluoromethoxy-benzamide] | > 10 |  |  |
| 0.571 | CC1(C)OB(O)c2cc(NC(=O)c3ccc(SC(F)(F)F)cc3)ccc21 [compound 54, N-(1-Hydroxy-3,3-dimethyl-1,3-dihydro-benzo[c][1,2]oxaborol-6-yl)-4-trifluoromethylsulfanyl-benzamide] | > 10 |  |  |
| 0.122 | CC1(C)OB(O)c2cc(NC(=O)c3ccccc3[N+](=O)[O-])ccc21 [compound 55, N-(1-Hydroxy-3,3-dimethyl-1,3-dihydro-benzo[c][1,2]oxaborol-6-yl)-2-nitro-benzamide] | > 10 |  |  |
| > 5 | CC1(C)OB(O)c2cc(NC(=O)c3ccc([N+](=O)[O-])cc3)ccc21 [compound 56, N-(1-Hydroxy-3,3-dimethyl-1,3-dihydro-benzo[c][1,2]oxaborol-6-yl)-4-nitro-benzamide] | > 10 |  |  |
| > 5 | CC1(C)OB(O)c2cc(NC(=O)c3ccc(C#N)cc3)ccc21 [compound 57, 4-Cyano-N-(1-hydroxy-3,3-dimethyl-1,3-dihydro-benzo[c][1,2]oxaborol-6-yl)-benzamide] | > 10 |  |  |
| 1.11 | COC(=O)c1ccc(C(=O)Nc2ccc3c(c2)B(O)OC3(C)C)cc1 [compound 58, N-(1-Hydroxy-3,3-dimethyl-1,3-dihydro-benzo[c][1,2]oxaborol-6-yl)-terephthalamic acid methyl ester] | > 10 |  |  |
| 1.61 | CC(=O)Nc1ccc(C(=O)Nc2ccc3c(c2)B(O)OC3(C)C)cc1 [compound 59, 4-Acetylamino-N-(1-hydroxy-3,3-dimethyl-1,3-dihydro-benzo[c][1,2]oxaborol-6-yl)-benzamide] | > 10 |  |  |
| 0.205 | CC1(C)OB(O)c2cc(NC(=O)c3ccc(-c4cccs4)cc3)ccc21 [compound 60, N-(1-Hydroxy-3,3-dimethyl-1,3-dihydro-benzo[c][1,2]oxaborol-6-yl)-4-thiophen-2-yl-benzamide] | > 10 |  |  |
| 1.6 | CC1(C)OB(O)c2cc(NC(=O)c3ccc(N4CCOCC4)cc3)ccc21 [compound 61, N-(1-Hydroxy-3,3-dimethyl-1,3-dihydro-benzo[c][1,2]oxaborol-6-yl)-4-morpholin-4-yl-benzamide] | > 10 |  |  |
| 0.365 | CC1(C)OB(O)c2cc(NC(=O)c3ccc(-c4ccccc4)cc3)ccc21 [compound 62, Biphenyl-4-carboxylic acid (1-hydroxy-3,3-dimethyl-1,3-dihydro-benzo[c][1,2]oxaborol-6-yl)-amide] | > 10 |  |  |
| 0.724 | CC1(C)OB(O)c2cc(NC(=O)c3c(F)cccc3F)ccc21 [compound 64, 2,6-Difluoro-N-(1-hydroxy-3,3-dimethyl-1,3-dihydro-benzo[c][1,2]oxaborol-6-yl)-benzamide] | > 10 |  |  |
| 0.292 | CC1(C)OB(O)c2cc(NC(=O)c3cccc(Cl)c3Cl)ccc21 [compound 66, 2,3-Dichloro-N-(1-hydroxy-3,3-dimethyl-1,3-dihydro-benzo[c][1,2]oxaborol-6-yl)-benzamide] | > 10 |  |  |
| > 5 | CC1(C)OB(O)c2cc(NC(=O)c3ccc(Cl)c(Cl)c3)ccc21 [compound 67, 3,4-Dichloro-N-(1-hydroxy-3,3-dimethyl-1,3-dihydro-benzo[c][1,2]oxaborol-6-yl)-benzamide] | > 10 |  |  |
| 2.23 | CC1(C)OB(O)c2cc(NC(=O)c3c(Cl)cccc3Cl)ccc21 [compound 68, 2,6-Dichloro-N-(1-hydroxy-3,3-dimethyl-1,3-dihydro-benzo[c][1,2]oxaborol-6-yl)-benzamide] | > 10 |  |  |
| 0.377 | CC1(C)OB(O)c2cc(NC(=O)c3cccc(Cl)c3F)ccc21 [compound 70, 3-Chloro-2-fluoro-N-(1-hydroxy-3,3-dimethyl-1,3-dihydro-benzo[c][1,2]oxaborol-6-yl)-benzamide] | > 10 |  |  |
| 0.697 | CC1(C)OB(O)c2cc(NC(=O)c3ccc(Cl)cc3F)ccc21 [compound 71, 4-Chloro-2-fluoro-N-(1-hydroxy-3,3-dimethyl-1,3-dihydro-benzo[c][1,2]oxaborol-6-yl)-benzamide] | > 10 |  |  |
| 0.407 | CC1(C)OB(O)c2cc(NC(=O)c3cc(Cl)ccc3F)ccc21 [compound 72, 5-Chloro-2-fluoro-N-(1-hydroxy-3,3-dimethyl-1,3-dihydro-benzo[c][1,2]oxaborol-6-yl)-benzamide] | > 10 |  |  |
| 2.44 | CC1(C)OB(O)c2cc(NC(=O)c3c(F)cccc3Cl)ccc21 [compound 73, 2-Chloro-6-fluoro-N-(1-hydroxy-3,3-dimethyl-1,3-dihydro-benzo[c][1,2]oxaborol-6-yl)-benzamide] | > 10 |  |  |
| 0.405 | CC1(C)OB(O)c2cc(NC(=O)c3ccc(Cl)cc3Br)ccc21 [compound 75, 2-Bromo-4-chloro-N-(1-hydroxy-3,3-dimethyl-1,3-dihydro-benzo[c][1,2]oxaborol-6-yl)-benzamide] | > 10 |  |  |
| 0.05 | CC1(C)OB(O)c2cc(NC(=O)c3ccc(I)cc3Cl)ccc21 [compound 77, 2-Chloro-N-(1-hydroxy-3,3-dimethyl-1,3-dihydro-benzo[c][1,2]oxaborol-6-yl)-4-iodo-benzamide] | > 10 |  |  |
| 1.1 | Cc1ccc(C(=O)Nc2ccc3c(c2)B(O)OC3(C)C)c(C)c1 [compound 78, N-(1-Hydroxy-3,3-dimethyl-1,3-dihydro-benzo[c][1,2]oxaborol-6-yl)-2,4-dimethyl-benzamide] | > 10 |  |  |
| 1.1 | CC1(C)OB(O)c2cc(NC(=O)c3ccc(C(F)(F)F)cc3C(F)(F)F)ccc21 [compound 79, N-(1-Hydroxy-3,3-dimethyl-1,3-dihydro-benzo[c][1,2]oxaborol-6-yl)-2,4-bis-trifluoromethyl-benzamide] | > 10 |  |  |
| > 5 | CC1(C)OB(O)c2cc(NC(=O)c3cc(C(F)(F)F)cc(C(F)(F)F)c3)ccc21 [compound 80, N-(1-Hydroxy-3,3-dimethyl-1,3-dihydro-benzo[c][1,2]oxaborol-6-yl)-3,5-bis-trifluoromethyl-benzamide] | > 10 |  |  |
| 0.183 | CC1(C)OB(O)c2cc(NC(=O)c3cc(C(F)(F)F)ccc3C(F)(F)F)ccc21 [compound 81, N-(1-Hydroxy-3,3-dimethyl-1,3-dihydro-benzo[c][1,2]oxaborol-6-yl)-2,5-bis-trifluoromethyl-benzamide] | > 10 |  |  |

| SMILES | IC50 [1] [µg/mL] | IC50 at 72 h [2] [µg/mL] | Selectivity Index (L929 IC50 / T. b. brucei IC50) [1] | pIC50 [1] |
| --- | --- | --- | --- | --- |
| COc1ccc(C(=O)Nc2ccc3c(c2)B(O)OC3(C)C)cc1 [compound 48, N-(1-Hydroxy-3,3-dimethyl-1,3-dihydro-benzo[c][1,2]oxaborol-6-yl)-4-methoxy-benzamide] | 1.11 | > 10 | >9 | 5.45 |
| CC1(C)OB(O)c2cc(NC(=O)c3ccc(F)cc3F)ccc21 [compound 63, 2,4-Difluoro-N-(1-hydroxy-3,3-dimethyl-1,3-dihydro-benzo[c][1,2]oxaborol-6-yl)-benzamide] | 2.66 | > 10 | >4 | 5.08 |
| CC1(C)OB(O)c2cc(NC(=O)c3ccc(F)cc3Br)ccc21 [compound 74, 2-Bromo-4-fluoro-N-(1-hydroxy-3,3-dimethyl-1,3-dihydro-benzo[c][1,2]oxaborol-6-yl)-benzamide] | 0.564 | > 10 | >18 | 5.83 |
